Values after ≈ are worked out from the molar mass of the structure shown. Where two headings read alike, the source gives them in different places.
How the values were obtained:
[1] = test system: Neisseria gonorrhoeae, GC525 (NG-2888); assay: in-vitro antibacterial activity, microbroth dilution MIC susceptibility testing; type: cell-based; design: unit: ug/mL; settings: microbroth dilution in gonococcal broth, 20-24 hours at 35 C, lowest concentration preventing visible growth
Outline: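 Broth microdilution in gonococcal broth, inoculum ~5×10^5 cfu/mL, 20-24 h at 35 C in humidified CO2; compounds from 2 mg/mL DMSO stocks over 64-0.06 and 1-0.001 ug/mL two-fold series. MIC is the lowest concentration preventing visible growth, read visually; duplicates differing one well give the lower value, two wells the middle value.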

[2] = Neisseria gonorrhoeae, read-out: MIC

| Compound | MIC [1, 2] [µg/mL] | melting point | MIC [1] [µg/mL] |
| --- | --- | --- | --- |
| CCNC(=O)Nc1nc2cc(-c3cnc(OC)nc3)ccn2n1 [Example 3, 1-Ethyl-3-[7-(2-methoxy-pyrimidin-5-yl)-[1,2,4]triazolo[1,5-a]pyridin-2-yl]-urea] | > 64 | 243 to 248 °C |  |
| CCNC(=O)Nc1nc2cc(-c3cccnc3)cc(-c3nc(C)no3)n2n1 [Example 18, 1-Ethyl-3-[5-(3-methyl-[1,2,4]oxadiazol-5-yl)-7-pyridin-3-yl-[1,2,4]triazolo[1,5-a]pyridin-2-yl]-urea] |  | 298 to 301 °C |  |
| CCNC(=O)Nc1nc2cc(-c3cccnc3)ccn2n1 [Example 1, 1-Ethyl-3-(7-pyridin-3-yl-[1,2,4]triazolo[1,5-a]pyridin-2-yl)-urea] | 32 (≈ 113 µM) | 230 to 233 °C |  |
| CCNC(=O)Nc1nc2cc(-c3cccnc3)cc(C(=O)OC)n2n1 [Example 6, 2-(3-Ethyl-ureido)-7-pyridin-3-yl-[1,2,4]triazolo[1,5-a]pyridine-5-carboxylic acid methyl ester] | 16 (≈ 47 µM) | 211 to 213 °C |  |
| CCNC(=O)Nc1nc2cc(-c3cccnc3)cc(N3CCOCC3)n2n1 [Example 133, 1-Ethyl-3-(5-morpholin-4-yl-7-pyridin-3-yl-[1,2,4]triazolo[1,5-a]pyridin-2-yl)-urea] | 0.25 (≈ 0.68 µM) | 298 to 300 °C |  |
| CCNC(=O)Nc1nc2cc(-c3cccnc3)cc(N3CCC(N(C)C)C3)n2n1 (centres unmarked) [Example 130, 1-[5-(3-Dimethylamino-pyrrolidin-1-yl)-7-pyridin-3-yl-[1,2,4]triazolo[1,5-a]pyridin-2-yl]-3-ethyl-urea] | 16 (≈ 40.6 µM) | 248 to 250 °C |  |
| CCNC(=O)Nc1nc2cc(-c3cccnc3)cc(OCCN3CCCC3)n2n1 [Example 143, N-Ethyl-N′-[7-pyridin-3-yl-5-(2-pyrrolidin-1-ylethoxy)[1,2,4]triazolo[1,5-a]pyridin-2-yl]urea] | 32 (≈ 80.9 µM) | 189 to 192 °C (dec.) |  |
| CCNC(=O)Nc1nc2cc(-c3cncnc3)cc(C(=O)NCC)n2n1 [Example 19, N-Ethyl-2-{[(ethylamino)carbonyl]amino}-7-pyrimidin-5-yl[1,2,4]triazolo[1,5-a]pyridine-5-carboxamide] | 1 (≈ 2.82 µM) | 317 to 321 °C |  |
| CCNC(=O)Nc1nc2cc(-c3cccnc3)cc(C(=O)NC)n2n1 [Example 7, 2-(3-Ethyl-ureido)-7-pyridin-3-yl-[1,2,4]triazolo[1,5-a]pyridine-5-carboxylic acid methylamide] | 2 (≈ 5.89 µM) | > 300 °C |  |
| CCNC(=O)Nc1nc2cc(-c3cccnc3)cc(C(=O)OCC)n2n1 [Example 16, 2-(3-ethyl-ureido)-7-pyridin-3-yl-[1,2,4]triazolo[1,5-a]pyridine-5-carboxylic acid ethyl ester] |  | 242 to 245 °C |  |
| CCNC(=O)Nc1nc2cc(-c3cccnc3)cc(OCCN(C)C)n2n1 [Example 141, 1-[5-(2-Dimethylamino-ethoxy)-7-pyridin-3-yl-[1,2,4]triazolo[1,5-a]pyridin-2-yl]-3-ethyl-urea] | 32 (≈ 86.6 µM) | 200 to 202 °C |  |
| CCNC(=O)Nc1nc2cc(-c3cnc(N(C)C)nc3)cc(C(=O)NCC)n2n1 [Example 20, 7-[2-(Dimethylamino)pyrimidin-5-yl]-N-ethyl-2-{[(ethylamino)carbonyl]amino}[1,2,4]triazolo[1,5-a]pyridine-5-carboxamide] | 1 (≈ 2.52 µM) | 328 to 334 °C |  |
| CCNC(=O)Nc1nc2cc(-c3c(C)noc3C)cc(C(=O)NCC)n2n1 [Example 21, 7-(3,5-Dimethylisoxazol-4-yl)-N-ethyl-2-{[(ethylamino)carbonyl]amino}[1,2,4]triazolo[1,5-a]pyridine-5-carboxamide] | > 64 | 238 to 241 °C |  |
| CCNC(=O)Nc1nc2cc(-c3cccnc3)cc(N3CCC(O)C3)n2n1 (centres unmarked) [Example 134, 1-Ethyl-3-[5-(3-hydroxy-pyrrolidin-1-yl)-7-pyridin-3-yl-[1,2,4]triazolo[1,5-a]pyridin-2-yl]-urea] | 32 (≈ 87.1 µM) | 296 to 298 °C |  |
| CCNC(=O)Nc1nc2cc(-c3ccc(OC)nc3)ccn2n1 [Example 2, 1-Ethyl-3-[7-(6-methoxy-pyridin-3-yl)-[1,2,4]triazolo[1,5-a]pyridin-2-yl]-urea] | > 64 | 230 to 233 °C |  |
| CCNC(=O)Nc1nc2cc(-c3cccnc3)cc(-c3nnc(C)o3)n2n1 [Example 23, N-Ethyl-N′-[5-(5-methyl-1,3,4-oxadiazol-2-yl)-7-pyridin-3-yl[1,2,4]triazolo[1,5-a]pyridin-2-yl]urea] | > 64 | 318 to 321 °C |  |
| CCCNC(=O)c1cc(-c2cccnc2)cc2nc(NC(=O)NCC)nn12 [Example 9, 2-(3-Ethyl-ureido)-7-pyridin-3-yl-[1,2,4]triazolo[1,5-a]pyridine-5-carboxylic acid propylamide] | 4 (≈ 10.9 µM) |  |  |
| CCNC(=O)Nc1nc2cc(-c3cccc(F)c3)cc(C(=O)NCC)n2n1 [Example 70, 2-(3-Ethyl-ureido)-7-(3-fluoro-phenyl)-[1,2,4]triazolo[1,5-a]pyridine-5-carboxylic acid ethylamide] | 1 (≈ 2.7 µM) |  |  |
| CCNC(=O)Nc1nc2cc(-c3cccnc3)cc(OCCN3CCCCC3)n2n1 [Example 144, 1-Ethyl-3-[5-(2-piperidin-1-yl-ethoxy)-7-pyridin-3-yl-[1,2,4]triazolo[1,5-a]pyridin-2-yl]-urea] | 32 (≈ 78.1 µM) |  |  |
| CCNC(=O)Nc1nc2cc(-c3cccnc3)cc(C(=O)NC3CC3)n2n1 [Example 13, 2-(3-Ethyl-ureido)-7-pyridin-3-yl-[1,2,4]triazolo[1,5-a]pyridine-5-carboxylic acid cyclopropylamide] | 4 (≈ 10.9 µM) |  |  |
| CCNC(=O)Nc1nc2cc(-c3cccnc3)cc(C(=O)N(CC)Cc3ccncc3)n2n1 [Example 88, 2-(3-Ethyl-ureido)-7-pyridin-3-yl-[1,2,4]triazolo[1,5-a]pyridine-5-carboxylic acidethyl-pyridin-4-ylmethyl-amide] | 8 (≈ 18 µM) |  |  |
| CCNC(=O)Nc1nc2cc(-c3cccnc3)cc(C(=O)N[C@@H](C)c3ccccc3)n2n1 [Example 42, (S)-2-(3-Ethyl-ureido)-7-pyridin-3-yl-[1,2,4]triazolo[1,5-a]pyridine-5-carboxylic acid(1-phenyl-ethyl)-amide] | 8 (≈ 18.6 µM) |  |  |
| CCNC(=O)Nc1nc2cc(-c3cccnc3)cc(N3CCN(C)CC3)n2n1 [Example 131, 1-Ethyl-3-[5-(4-methyl-piperazin-1-yl)-7-pyridin-3-yl-[1,2,4]triazolo[1,5-a]pyridin-2-yl]-urea] | 32 (≈ 84.1 µM) |  |  |
| CCNC(=O)Nc1nc2cc(-c3cccc(C#N)c3)cc(C(=O)NCC)n2n1 [Example 81, 7-(3-Cyano-phenyl)-2-(3-ethyl-ureido)-[1,2,4]triazolo[1,5-a]pyridine-5-carboxylic acid ethylamide] | 2 (≈ 5.3 µM) |  |  |
| CCNC(=O)Nc1nc2cc(-c3ccc(OC(C)C)cc3)cc(C(=O)NCC)n2n1 [Example 80, 2-(3-Ethyl-ureido)-7-(4-isopropoxy-phenyl)-[1,2,4]triazolo[1,5-a]pyridine-5-carboxylic acid ethylamide] | > 64 |  |  |
| CCNC(=O)Nc1nc2cc(-c3cccnc3)cc(-c3cnc(CC)o3)n2n1 [Example 139, N-Ethyl-N′-[5-(2-ethyl-1,3-oxazol-5-yl)-7-pyridin-3-yl[1,2,4]triazolo[1,5-a]pyridin-2-yl]urea] | 1 (≈ 2.65 µM) |  |  |
| 1-Ethyl-3-(5-ethylaminomethyl-7-pyridin-3-yl-imidazo[1,2-a]pyridin-2-yl)-urea [Example 115] |  |  | 32.0 |
